# According to article PMC5561075, “Identification and Characterization of a Bacterial Homolog of Chloride Intracellular Channel (CLIC) Protein” (Scientific Reports, 2017):
# Target: Ec SspA (Escherichia coli, UniProt P0ACA3)
# Assay: single-channel recording in planar lipid bilayers
# Type: biochemical
# Settings: channel blocker, POPE:POPS:cholesterol 4:1:1, 500 mM KCl cis vs 50 mM KCl trans, 10 mM Tris-HCl pH 7.4, 1 mM DTT, room temperature
# Sequence of Ec SspA (P0ACA3 whole entry): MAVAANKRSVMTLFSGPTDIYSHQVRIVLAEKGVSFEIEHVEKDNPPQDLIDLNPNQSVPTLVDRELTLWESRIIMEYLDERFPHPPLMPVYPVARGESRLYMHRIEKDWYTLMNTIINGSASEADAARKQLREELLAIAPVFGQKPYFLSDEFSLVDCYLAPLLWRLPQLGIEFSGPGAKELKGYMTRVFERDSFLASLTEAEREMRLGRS
compound,measurement,value
CC1(C2CCCC2)Cc2cc(OCC(=O)O)c(Cl)c(Cl)c2C1=O (stereo not shown) [IAA-94],open probability at 100 μM,0.1 ± 0.05
